Test results: US9181218B2, “Compounds for improved stem cell differentiation into hepatocytes” (Hoffmann-La Roche Inc., priority 2013, dated 2015)

Tested on: interferon-stimulated genes (ISGs)
Test: Microarray analysis of iCell Hepatocytes treated with the compound of example 1
Format: cell-based, Human
Source text: iCell Hepatocytes treated with the compound of example 1 results in the up and down-regulation of a host of genes; including a kinetic effect on interferon-stimulated gene (ISGs) expression. See FIGS. 15-I and 15-II, 16-I and 16-II and 18 and Table 1.

O=C(NCc1cccc(F)c1)c1cccc2nc(-c3c(NC[C@@H](O)c4ccccc4)cc[nH]c3=O)[nH]c12 [Example 1, 2-[4-((S)-2-hydroxy-2-phenyl-ethylamino)-2-oxo-1,2-dihydro-pyridin-3-yl]-3H-benzoimidazole-4-carboxylic acid 3-fluoro-benzylamide]
JAK2 Raw Est Fold Change (DAY 7): 1.39
JUNB Raw Est Fold Change (DAY 7): −8.16
KIAA0040 Raw Est Fold Change (DAY 7): −1.76
KIF5C Raw Est Fold Change (DAY 7): −4.32
KPNB1 Raw Est Fold Change (DAY 7): −1.34
LRP4 Raw Est Fold Change (DAY 7): −2.80
LTBP2 Raw Est Fold Change (DAY 7): −2.94
LYN Raw Est Fold Change (DAY 7): −1.71
MAFB Raw Est Fold Change (DAY 7): 6.31
MAFK Raw Est Fold Change (DAY 7): −1.70
MAP3K8 Raw Est Fold Change (DAY 7): −6.22
MAX Raw Est Fold Change (DAY 7): −1.95
MCL1 Raw Est Fold Change (DAY 7): −1.33
MSR1 Raw Est Fold Change (DAY 7): 16.00
MT1F Raw Est Fold Change (DAY 7): 2.56
MTHFD2L Raw Est Fold Change (DAY 7): −5.12
MTMR1 Raw Est Fold Change (DAY 7): −1.20
MYC Raw Est Fold Change (DAY 7): −7.27
MYD88 Raw Est Fold Change (DAY 7): 1.19
MYOM2 Raw Est Fold Change (DAY 7): 1.59
MYT1 Raw Est Fold Change (DAY 7): −3.88
NEXN Raw Est Fold Change (DAY 7): −2.35
NFE2 Raw Est Fold Change (DAY 7): −5.79
NFIL3 Raw Est Fold Change (DAY 7): −1.60
NGFB Raw Est Fold Change (DAY 7): 1.97
NLRC5 Raw Est Fold Change (DAY 7): −3.27
NMI Raw Est Fold Change (DAY 7): 1.34
NPAS2 Raw Est Fold Change (DAY 7): −4.43
OPTN Raw Est Fold Change (DAY 7): 1.28
PADI2 Raw Est Fold Change (DAY 7): 4.13
PARP14 Raw Est Fold Change (DAY 7): 1.33
PCK2 Raw Est Fold Change (DAY 7): 8.00
PCMT1 Raw Est Fold Change (DAY 7): −1.45
PCTK3 Raw Est Fold Change (DAY 7): 2.27
PDGFRL Raw Est Fold Change (DAY 7): −3.16
PEX26 Raw Est Fold Change (DAY 7): 1.38
PHF11 Raw Est Fold Change (DAY 7): −2.75
PHF15 Raw Est Fold Change (DAY 7): −1.69
PHLDA1 Raw Est Fold Change (DAY 7): −9.08
PI4K2B Raw Est Fold Change (DAY 7): 1.41
PIM3 Raw Est Fold Change (DAY 7): −2.64
PLAC8 Raw Est Fold Change (DAY 7): 5.43
PLAUR Raw Est Fold Change (DAY 7): −2.56
PLSCR1 Raw Est Fold Change (DAY 7): −2.59
PML Raw Est Fold Change (DAY 7): −2.58
PON1 Raw Est Fold Change (DAY 7): 5.18
PON2 Raw Est Fold Change (DAY 7): −1.39
PPIC Raw Est Fold Change (DAY 7): −2.26
PSMB10 Raw Est Fold Change (DAY 7): 1.91
PTEN Raw Est Fold Change (DAY 7): −1.44
PUS1 Raw Est Fold Change (DAY 7): −1.41
PXK Raw Est Fold Change (DAY 7): −1.23
RAB27A Raw Est Fold Change (DAY 7): −5.10
RAN Raw Est Fold Change (DAY 7): −1.29
RBMS1 Raw Est Fold Change (DAY 7): −3.48
RECQL Raw Est Fold Change (DAY 7): −1.66
RIPK2 Raw Est Fold Change (DAY 7): −1.45
RPL22 Raw Est Fold Change (DAY 7): 3.02
RSAD2 Raw Est Fold Change (DAY 7): 5.52
RXRA Raw Est Fold Change (DAY 7): 1.28
SAA1 Raw Est Fold Change (DAY 7): −1.51
SAMD9L Raw Est Fold Change (DAY 7): 2.42
SCARB2 Raw Est Fold Change (DAY 7): 1.64
SDC2 Raw Est Fold Change (DAY 7): 1.66
SELL Raw Est Fold Change (DAY 7): 3.83
SELP Raw Est Fold Change (DAY 7): 5.95
SERPINB9 Raw Est Fold Change (DAY 7): −1.86
SF3A1 Raw Est Fold Change (DAY 7): 1.26
SFPQ Raw Est Fold Change (DAY 7): −1.57
SHMT2 Raw Est Fold Change (DAY 7): 1.44
SLC7A5 Raw Est Fold Change (DAY 7): 1.78
SLC10A1 Raw Est Fold Change (DAY 7): 10.61
SLC15A2 Raw Est Fold Change (DAY 7): −1.52
SLC20A1 Raw Est Fold Change (DAY 7): 1.90
SLC25A28 Raw Est Fold Change (DAY 7): −1.47
SLC30A1 Raw Est Fold Change (DAY 7): 2.66
SLFN12 Raw Est Fold Change (DAY 7): −1.92
SOAT2 Raw Est Fold Change (DAY 7): 11.97
SOCS1 Raw Est Fold Change (DAY 7): −42.96
SOCS3 Raw Est Fold Change (DAY 7): −17.74
SPSB1 Raw Est Fold Change (DAY 7): −2.63
SPTLC2 Raw Est Fold Change (DAY 7): −1.49
SRGAP2 Raw Est Fold Change (DAY 7): 1.95
SSBP3 Raw Est Fold Change (DAY 7): 1.49
SSR1 Raw Est Fold Change (DAY 7): −1.71
STAT1 Raw Est Fold Change (DAY 7): −4.03
STEAP4 Raw Est Fold Change (DAY 7): −1275.83
STK39 Raw Est Fold Change (DAY 7): −1.88
TAP1 Raw Est Fold Change (DAY 7): −1.72
TAP2 Raw Est Fold Change (DAY 7): −2.02
TARBP1 Raw Est Fold Change (DAY 7): −1.18
TCF7L2 Raw Est Fold Change (DAY 7): −1.57
TEAD4 Raw Est Fold Change (DAY 7): −6.47
TFDP2 Raw Est Fold Change (DAY 7): 1.26
TFEC Raw Est Fold Change (DAY 7): 7.83
TFPI Raw Est Fold Change (DAY 7): −1.80
THBD Raw Est Fold Change (DAY 7): −6.70
TIMP1 Raw Est Fold Change (DAY 7): −11.92
TMEM2 Raw Est Fold Change (DAY 7): −3.07
TMEM49 Raw Est Fold Change (DAY 7): −1.98
TNFSF14 Raw Est Fold Change (DAY 7): −2.68
TOR1B Raw Est Fold Change (DAY 7): −1.39
TPM1 Raw Est Fold Change (DAY 7): 1.77
TRIB3 Raw Est Fold Change (DAY 7): 1.84
TRIM14 Raw Est Fold Change (DAY 7): 1.68
TXNIP Raw Est Fold Change (DAY 7): −7.72
UBE1L Raw Est Fold Change (DAY 7): 1.65
UBE2S Raw Est Fold Change (DAY 7): −1.95
ULK4 Raw Est Fold Change (DAY 7): −4.12
UPP2 Raw Est Fold Change (DAY 7): 16.78
USP25 Raw Est Fold Change (DAY 7): 1.84
WARS Raw Est Fold Change (DAY 7): −1.50
WAS Raw Est Fold Change (DAY 7): 3.44
XRCC6BP1 Raw Est Fold Change (DAY 7): 1.33
ZC3HAV1 Raw Est Fold Change (DAY 7): −1.57
ZNF24 Raw Est Fold Change (DAY 7): −1.16
ZNF276 Raw Est Fold Change (DAY 7): 1.44
ZNF313 Raw Est Fold Change (DAY 7): 1.31
interferon-stimulated genes (ISGs) expression (microarray heat map, FIG. 15): down-regulated interferon-stimulated genes (ISGs) as early as 2 hr
CREB3L1 expression (microarray, FIG. 15): down-regulated as early as 2 hr post treatment
SLC10A1 expression (microarray, FIG. 15): up-regulated at 7 day post-treatment
